Read-outs that look alike come from different tables or passages of the source.
Legend:
hGIPR = target: T1, hGIPR (Homo sapiens, UniProt P48546); experiment: Functional cAMP formation (HTRF) in HEK-293 clonal cells expressing hGIPR, 0.1% bovine casein, without or with 1.0% human serum albumin; assay type: cell-based; conditions: 37° C.; for Emax: HEK293, cAMP, percent of maximal response to GIP(1-42)NH2, read-out: hGIPR Emax, % ± SEM; for EC50: cAMP, 0.1% bovine casein (no human serum albumin), geometric mean, read-out: hGIPR EC50, nM (SEM, n)
T1 construct: expressed in transfected cells
T1 sequence (P48546 22-466): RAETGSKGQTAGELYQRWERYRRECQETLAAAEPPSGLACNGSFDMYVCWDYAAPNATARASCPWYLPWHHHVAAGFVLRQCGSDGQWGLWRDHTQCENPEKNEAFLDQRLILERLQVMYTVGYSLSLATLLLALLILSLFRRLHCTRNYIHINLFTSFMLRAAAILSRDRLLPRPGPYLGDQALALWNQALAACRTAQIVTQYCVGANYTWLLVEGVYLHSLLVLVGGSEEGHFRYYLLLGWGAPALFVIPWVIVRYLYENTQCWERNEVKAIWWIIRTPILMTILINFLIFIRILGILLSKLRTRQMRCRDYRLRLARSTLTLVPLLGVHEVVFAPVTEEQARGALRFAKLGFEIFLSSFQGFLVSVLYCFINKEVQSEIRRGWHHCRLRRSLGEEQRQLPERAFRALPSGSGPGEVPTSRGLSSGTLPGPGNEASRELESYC
In short: (§1)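 Cells were stimulated with peptide for 30 min at 37° C, then lysed in buffer carrying cAMP-d2 and anti-cAMP Eu3+-cryptate for a competitive HTRF read after at least 60 min at room temperature. The 665/620 nm ratio was converted to nM cAMP against a standard curve.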

[1] = target: T2, human GIP receptor (hGIPR) (Homo sapiens, UniProt P48546); experiment: [125I]-GIP binding, SPA with membranes of CHO cells expressing hGIPR; conditions: human GIPR; geometric mean (SEM, n); read-out: Binding Affinity Ki, nM (SEM, n) hGIPR
T2 construct: expressed in transfected cells; crude membranes
T2 sequence (P48546 22-466): T1 sequence (P48546 22-466)

[2] = target: T3, human GLP-1 receptor (hGLP-1R) (Homo sapiens, UniProt P43220); experiment: [125I]-GLP-1 binding, SPA with membranes of HEK293 cells expressing hGLP-1R; conditions: human GLP-1R; geometric mean (SEM, n); read-out: Binding Affinity Ki, nM (SEM, n) hGLP-1R
T3 construct: expressed in transfected cells; crude membranes
T3 sequence (P43220 24-463): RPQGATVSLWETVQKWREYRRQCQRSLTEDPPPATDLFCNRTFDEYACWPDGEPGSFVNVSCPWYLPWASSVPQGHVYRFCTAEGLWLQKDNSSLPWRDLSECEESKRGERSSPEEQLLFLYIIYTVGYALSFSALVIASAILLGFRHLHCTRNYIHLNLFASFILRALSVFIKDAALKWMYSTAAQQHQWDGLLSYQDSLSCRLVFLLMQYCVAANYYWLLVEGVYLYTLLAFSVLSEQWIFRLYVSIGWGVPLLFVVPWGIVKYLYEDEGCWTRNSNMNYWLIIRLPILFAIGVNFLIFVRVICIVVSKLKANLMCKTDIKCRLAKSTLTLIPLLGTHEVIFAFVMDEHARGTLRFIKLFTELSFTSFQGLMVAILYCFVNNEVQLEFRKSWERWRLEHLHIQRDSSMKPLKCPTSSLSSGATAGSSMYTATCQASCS

hGLP-1R = hGLP-1R (Homo sapiens, UniProt P43220); experiment: Functional cAMP formation (HTRF) in HEK-293 clonal cells expressing hGLP-1R, 0.1% bovine casein, without or with 1.0% human serum albumin; assay type: cell-based; design: expressed in transfected cells; conditions: cAMP, 37° C., read-out: hGLP-1R EC50, nM (SEM, n)
Sequence of hGLP-1R (P43220 24-463): as above
In short: as §1

hGCGR = target: T4, hGCGR (Homo sapiens, UniProt P47871); experiment: Functional cAMP formation (HTRF) in HEK-293 clonal cells expressing hGCGR, 0.1% bovine casein, without or with 1.0% human serum albumin; assay type: cell-based; conditions: cAMP, 37° C., read-out: hGCGR EC50, nM (SEM, n)
T4 construct: expressed in transfected cells
T4 sequence (P47871 26-477): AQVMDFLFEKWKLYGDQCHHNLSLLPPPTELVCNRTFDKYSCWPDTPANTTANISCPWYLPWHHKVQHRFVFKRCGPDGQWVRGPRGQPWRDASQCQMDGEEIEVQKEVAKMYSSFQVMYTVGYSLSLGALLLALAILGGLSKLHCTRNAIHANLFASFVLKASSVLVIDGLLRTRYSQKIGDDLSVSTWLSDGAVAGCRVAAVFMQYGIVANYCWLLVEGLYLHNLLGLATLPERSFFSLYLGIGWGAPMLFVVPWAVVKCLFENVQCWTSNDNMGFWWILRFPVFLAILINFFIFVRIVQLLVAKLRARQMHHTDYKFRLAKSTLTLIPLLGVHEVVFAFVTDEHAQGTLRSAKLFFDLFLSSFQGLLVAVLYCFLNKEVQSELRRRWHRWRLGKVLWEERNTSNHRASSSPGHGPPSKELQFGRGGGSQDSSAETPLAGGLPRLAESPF
In short: as §1

[3] = 0.1% bovine casein and 1.0% human serum albumin
[4] = 0.1% bovine casein (no human serum albumin), geometric mean
[5] = 0.1% bovine casein and 1.0% human serum albumin, geometric mean (SEM, n)

Row | Structure (SMILES) | Emax (hGIPR; [3]) [%] | EC50 (hGIPR) [nM] | Ki [1] [nM] | Ki [2] [nM] | EC50 (hGLP-1R; [4]) [nM] | EC50 (hGLP-1R; [5]) [nM] | EC50 (hGCGR; [4]) [nM] | EC50 (hGCGR; [5]) [nM] | Emax (hGIPR; 0.1% bovine casein, arithmetic mean) [%]
1 | CCCCCCCCCCCC(=O)N[C@@H](CCC(=O)NCCOCCOCC(=O)NCCOCCOCC(=O)NCCOCCOCC(=O)NCCCC[C@H](NC(=O)[C@H](CCCN)NC(=O)[C@H](CC(=O)O)NC(=O)[C@H](CC(C)C)NC(=O)[C@](C)(CC(C)C)NC(=O)[C@@H](NC(=O)C(C)(C)NC(=O)[C@H](CCCCNC(=O)COCCOCCNC(=O)COCCOCCNC(=O)COCCOCCNC(=O)CC[C@H](NC(=O)CCCCCCCCCCC)C(=O)O)NC(=O)[C@H](CC(=O)O)NC(=O)[C@H](CO)NC(=O)[C@@H](NC(=O)[C@](C)(Cc1ccccc1F)NC(=O)[C@@H](NC(=O)CNC(=O)[C@H](CCC(=O)O)NC(=O)C(C)(C)NC(=O)[C@@H](N)Cc1ccc(O)cc1)[C@@H](C)O)[C@@H](C)O)[C@@H](C)CC)C(=O)N[C@@H](C)C(=O)N[C@@H](CCC(N)=O)C(=O)NC(C)(C)C(=O)N[C@@H](CCCN)C(=O)N[C@@H](Cc1ccccc1)C(=O)N[C@H](C(=O)N[C@H](CCC(=O)O)C(=O)N[C@@](C)(Cc1ccc(O)cc1)C(=O)N[C@@H](CC(C)C)C(=O)N[C@H](C(=O)N[C@@H](CCC(=O)O)C(=O)NCC(=O)NCC(=O)N1CCC[C@H]1C(=O)N[C@@H](CO)C(=O)N[C@@H](CO)C(=O)NCC(=O)N[C@@H](C)C(=O)N1CCC[C@H]1C(=O)N1CCC[C@H]1C(=O)N1CCC[C@H]1C(=O)N[C@@H](CO)C(N)=O)[C@@H](C)CC)[C@@H](C)CC)C(=O)O [Example 432] | 96.7 | 0.00602 | 0.0134 | 0.134 | 0.0549 | 1.28 | > 9950 | > 9950 | –
2 | CCCCCCCCCCCC(=O)N[C@@H](CCC(=O)NCCOCCOCC(=O)NCCOCCOCC(=O)NCCOCCOCC(=O)NCCCC[C@H](NC(=O)[C@H](CCCN)NC(=O)[C@H](CC(=O)O)NC(=O)[C@H](CC(C)C)NC(=O)[C@](C)(CC(C)C)NC(=O)[C@@H](NC(=O)C(C)(C)NC(=O)[C@H](Cc1ccncc1)NC(=O)[C@H](CC(=O)O)NC(=O)[C@H](CO)NC(=O)[C@@H](NC(=O)[C@](C)(Cc1ccccc1F)NC(=O)[C@@H](NC(=O)CNC(=O)[C@H](CCC(=O)O)NC(=O)C(C)(C)NC(=O)[C@@H](N)Cc1ccc(O)cc1)[C@@H](C)O)[C@@H](C)O)[C@@H](C)CC)C(=O)N[C@@H](C)C(=O)N[C@@H](CCC(N)=O)C(=O)NC(C)(C)C(=O)N[C@@H](CCCCNC(=O)COCCOCCNC(=O)COCCOCCNC(=O)COCCOCCNC(=O)CC[C@H](NC(=O)CCCCCCCCCCC)C(=O)O)C(=O)N[C@@H](Cc1ccccc1)C(=O)N[C@H](C(=O)N[C@H](CCC(=O)O)C(=O)N[C@@](C)(Cc1ccc(O)cc1)C(=O)N[C@@H](CC(C)C)C(=O)N[C@H](C(=O)N[C@@H](CCCN)C(=O)NCC(=O)NCC(=O)N1CCC[C@H]1C(=O)N[C@@H](CO)C(=O)N[C@@H](CO)C(=O)NCC(=O)N[C@@H](C)C(=O)N1CCC[C@H]1C(=O)N1CCC[C@H]1C(=O)N1CCC[C@H]1C(=O)N[C@@H](CO)C(N)=O)[C@@H](C)CC)[C@@H](C)CC)C(=O)O [Example 433] | 100 | 0.00972 | 0.0175 | 0.187 | 0.128 | 2.63 | > 9950 | > 9950 | 94

Reference: patent US20230265151A1, “GIP/GLP1 CO-AGONIST COMPOUNDS” (priority 2020, published 2023)
